Data on 2 compounds can be found in patent publication US8992891B2, “Therapeutic approaches for treating CMT and related disorders” (Pharnext, priority 2007, dated 2015).

One assay relates to PMP22 mRNA. Put plainly: PMP22 mRNA level by quantitative RT-PCR after drug stimulation of rat Schwann cell primary culture. Details: key: +: significantly decreases PMP22 levels compared to control. The conditions noted are these: rat primary Schwann cells, drug incubation 24 hrs. Format: cell-based. Here is the method: After cells being platted in 12 well-dishes, the medium is replaced by a defined medium consisting in a mix of DMEM-F12 (Invitrogen #21331020) complemented by 1% of N2 supplement (Invitrogen #17502), 1% L-Glutamine (Invitrogen #25030024) 2.5% FBS (Sciencell #0025), 0.02 μg/ml of corticosterone (Sigma #C2505), 4 μM Forskolin and 50 μg/ml of gentamycin. Growth factors are not added to this medium, to promote SC differentiation
24 hours later, the medium is replaced by a defined medium (DMEM-F12) complemented with 1% Insulin-Transferrin-Selenium-X (ITS, Invitrogen #51300), 16 μg/ml of Putrescine (Sigma #P5780), 0.02 μg/ml of corticosterone and 50 μg/ml of gentamicin. At this step, neither progesterone nor forskolin are present in the medium.
One day later, Schwann cells are stimulated by combinations of drugs or drugs alone during 24 hrs (3 wells/condition). The preparation of each compound is performed just prior to its addition to the cell culture medium.
Drugs are added to a defined medium composed of DMEM-F12, with 1% Insulin-Transferrin-Selenium-X (ITS, Invitrogen #51300), 16 μg/ml of Putrescine, 0.02 μg/ml of corticosterone, 10 nM Progesterone and 50 μg/ml of gentamicin. The absence of Forskolin during drug stimulation avoids adenylate cyclase saturation.
Quantitative RT-PCR is used to compare the levels of PMP22 mRNA after drug stimulation, relative with housekeeping Ribosomal L13A mRNA in rat Schwann cell primary culture.
After rinsing with cold sterilized PBS, total RNAs from each cell sample are extracted and purified from SC using the Qiagen RNeasy micro kit (Qiagen #74004). Nucleic acids are quantified by Nanodrop spectrophotometer using 1 μl of RNA sample. The RNA integrity is determined through a BioAnalyzer (Agilent) apparatus.
RNAs are reverse-transcribed into cDNA according to standard protocol. cDNA templates for PCR amplification are synthesized from 200 ng of total RNA using SuperScript II reverse-transcriptase (Invitrogen #18064-014) for 60 min at 42° C. in the presence of oligo(dT), in a final volume of 20 μl.
cDNAs are subjected to PCR amplification using the ? LightCycler® 480 ? system (Roche Molecular Systems Inc.) Each cDNA are diluted five times before being used for PCR amplification. 2.5 μl of this cDNAs enters the PCR reaction solution (final volume of 10 μl). Preliminary experiments ensured that quantitation was done in the exponential phase of the amplification process for both sequences and that expression of the reference gene was uniform in the different culture conditions.
PCR reaction is performed by amplification of 500 nM of forward primer of rat PMP22 (NM_017037), 5-GGAAACGCGAATGAGGC-3 (SEQ ID NO: 1), and 500 nM of reverse primer 5-GTTCTGTTTGGTTTGGCTT-3 (SEQ ID NO: 2) (amplification of 148-bp). A 152-bp fragment of the RPL13A ribosomal (NM_173340) RNA is amplified in parallel in separate reactions for normalization of the results by using 500 nM of forward primer 5-CTGCCCTCAAGGTTGTG-3 (SEQ ID NO: 3), and 500 nM of reverse primer 5-[…]-3 (SEQ ID NO: 4).
We used FRET chemistry to perform RT-Q-PCR analysis. FRET probes are composed of 0.3 μM of Pmp22-FL-5-[…] (SEQ ID NO: 5) or Rpl13A-FL-5-TCGGGTGGAAGTACCAGCC (SEQ ID NO: 6), labelled at their 3′ end with a donor fluorophore dye (Fluorescein). 0.15 μM Red640 probes are defined as follows: Pmp22-red-5′-[…]- (SEQ ID NO: 7) or Rpl13A-red-5′-[…] (SEQ ID NO: 8), labelled at their 5′ end with an acceptor fluorophore dye (Rhodamine Red 640).
Each PCR reaction contained 2.5 μl cDNA template in a final volume of 10 μl of master mix kit (Roche #04-887301001).
The following PCR conditions are used: 10 sec at 95° C., 10 sec at 63° C. and 12 sec at 72° C. and 30 sec at 40° C. (Forty amplification cycles). The relative levels of PMP22 gene expression is measured by determining the ratio between the products generated from the target gene PMP22 and the endogenous internal standard RPL13A. […]

The subject of assay [1] is hemizygous PMP22 transgenic rat (CMT rat). Put plainly: Morphometrical analysis of hindlimb tissues and body weight in CMT rats. The conditions noted are these: CMT female rats, end of study, versus control WT rats.

The structures appear in SMILES notation.

Consider `Cn1cc[nH]c1=S` [Methimazole], for which the “mRNA (PMP22 expression decrease)” value in the assay with PMP22 mRNA was “+”. The “deficiencies of sciatic nerve and soleus muscle masses” value in assay [1] was “completely corrected”.

In the case of `CC[C@@H]1C(=O)OC[C@@H]1Cc1cncn1C` [Pilocarpine], in the assay with PMP22 mRNA, the “mRNA (PMP22 expression decrease)” value was “+”.
